Reference: the kinase profiling compilation of Christmann-Franck et al. (2016)

What was measured:
Assay in all cases: radiometric filter-binding kinase assay, Kinase HotSpot
Settings in all cases: compound 0.5 µM; ATP 10 µM
AURKA (human) = AURKA (human) (UniProt O14965)
AKT1 (human) = AKT1 (human) (UniProt P31749)
TAOK2 (human) = TAOK2 (human) (UniProt Q9UL54)
CDK4 CCND1 (human) = CDK4 CCND1 (human) (UniProt P24385+P11802)
TNK2 (human) = TNK2 (human) (UniProt Q07912)
CAMK2A (human) = CAMK2A (human) (UniProt Q9UQM7)
FGFR1 (human) = FGFR1 (human) (UniProt P11362)
PLK2 (human) = PLK2 (human) (UniProt Q9NYY3)
PAK7 (human) = PAK7 (human) (UniProt Q9P286)
Sequence of PAK7 (human) (Q9P286 whole entry, looked up): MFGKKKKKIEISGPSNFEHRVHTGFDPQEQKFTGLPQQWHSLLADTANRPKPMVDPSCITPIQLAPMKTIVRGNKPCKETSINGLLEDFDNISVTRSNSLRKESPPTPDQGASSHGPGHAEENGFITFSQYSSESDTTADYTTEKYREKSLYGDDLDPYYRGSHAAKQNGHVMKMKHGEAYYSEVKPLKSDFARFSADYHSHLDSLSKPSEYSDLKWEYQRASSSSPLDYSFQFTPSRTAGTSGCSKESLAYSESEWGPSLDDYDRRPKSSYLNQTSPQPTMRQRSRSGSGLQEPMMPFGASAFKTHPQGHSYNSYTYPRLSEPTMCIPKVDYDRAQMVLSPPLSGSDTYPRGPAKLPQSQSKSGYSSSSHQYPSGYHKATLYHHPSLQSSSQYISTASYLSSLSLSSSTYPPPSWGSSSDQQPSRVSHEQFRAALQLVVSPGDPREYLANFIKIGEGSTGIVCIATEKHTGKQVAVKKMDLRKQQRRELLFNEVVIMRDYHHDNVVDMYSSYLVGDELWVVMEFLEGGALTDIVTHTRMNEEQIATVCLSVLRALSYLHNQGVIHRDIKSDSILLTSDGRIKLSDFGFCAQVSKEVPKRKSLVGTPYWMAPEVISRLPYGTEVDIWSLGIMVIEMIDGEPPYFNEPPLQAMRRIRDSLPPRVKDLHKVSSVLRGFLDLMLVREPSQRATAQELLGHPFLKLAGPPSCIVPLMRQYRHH

WEE1 (human) = WEE1 (human) (UniProt P30291)
PRKD1 (human) = PRKD1 (human) (UniProt Q15139)
MAPK9 (human) = MAPK9 (human) (UniProt P45984)
MAP2K1 (human) = MAP2K1 (human) (UniProt Q02750)
Sequence of MAP2K1 (human) (Q02750 whole entry, looked up): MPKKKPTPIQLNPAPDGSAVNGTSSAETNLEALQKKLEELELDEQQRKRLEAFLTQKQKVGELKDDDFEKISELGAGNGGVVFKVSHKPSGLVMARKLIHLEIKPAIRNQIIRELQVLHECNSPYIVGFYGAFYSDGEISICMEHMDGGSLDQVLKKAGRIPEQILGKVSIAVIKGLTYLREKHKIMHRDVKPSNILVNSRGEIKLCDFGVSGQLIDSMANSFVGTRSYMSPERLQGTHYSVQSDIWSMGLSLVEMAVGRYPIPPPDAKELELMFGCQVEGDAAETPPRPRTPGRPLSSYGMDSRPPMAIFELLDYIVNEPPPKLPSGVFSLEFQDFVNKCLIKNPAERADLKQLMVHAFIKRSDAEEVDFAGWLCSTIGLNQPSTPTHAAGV

CDC42BPB (human) = CDC42BPB (human) (UniProt Q9Y5S2)
CDC42BPA (human) = CDC42BPA (human) (UniProt Q5VT25)
[1] = molecular target: JAK1 JH1 catalytic (human) (UniProt P23458)
Sequence of JAK1 JH1 catalytic (human) (P23458 whole entry, looked up): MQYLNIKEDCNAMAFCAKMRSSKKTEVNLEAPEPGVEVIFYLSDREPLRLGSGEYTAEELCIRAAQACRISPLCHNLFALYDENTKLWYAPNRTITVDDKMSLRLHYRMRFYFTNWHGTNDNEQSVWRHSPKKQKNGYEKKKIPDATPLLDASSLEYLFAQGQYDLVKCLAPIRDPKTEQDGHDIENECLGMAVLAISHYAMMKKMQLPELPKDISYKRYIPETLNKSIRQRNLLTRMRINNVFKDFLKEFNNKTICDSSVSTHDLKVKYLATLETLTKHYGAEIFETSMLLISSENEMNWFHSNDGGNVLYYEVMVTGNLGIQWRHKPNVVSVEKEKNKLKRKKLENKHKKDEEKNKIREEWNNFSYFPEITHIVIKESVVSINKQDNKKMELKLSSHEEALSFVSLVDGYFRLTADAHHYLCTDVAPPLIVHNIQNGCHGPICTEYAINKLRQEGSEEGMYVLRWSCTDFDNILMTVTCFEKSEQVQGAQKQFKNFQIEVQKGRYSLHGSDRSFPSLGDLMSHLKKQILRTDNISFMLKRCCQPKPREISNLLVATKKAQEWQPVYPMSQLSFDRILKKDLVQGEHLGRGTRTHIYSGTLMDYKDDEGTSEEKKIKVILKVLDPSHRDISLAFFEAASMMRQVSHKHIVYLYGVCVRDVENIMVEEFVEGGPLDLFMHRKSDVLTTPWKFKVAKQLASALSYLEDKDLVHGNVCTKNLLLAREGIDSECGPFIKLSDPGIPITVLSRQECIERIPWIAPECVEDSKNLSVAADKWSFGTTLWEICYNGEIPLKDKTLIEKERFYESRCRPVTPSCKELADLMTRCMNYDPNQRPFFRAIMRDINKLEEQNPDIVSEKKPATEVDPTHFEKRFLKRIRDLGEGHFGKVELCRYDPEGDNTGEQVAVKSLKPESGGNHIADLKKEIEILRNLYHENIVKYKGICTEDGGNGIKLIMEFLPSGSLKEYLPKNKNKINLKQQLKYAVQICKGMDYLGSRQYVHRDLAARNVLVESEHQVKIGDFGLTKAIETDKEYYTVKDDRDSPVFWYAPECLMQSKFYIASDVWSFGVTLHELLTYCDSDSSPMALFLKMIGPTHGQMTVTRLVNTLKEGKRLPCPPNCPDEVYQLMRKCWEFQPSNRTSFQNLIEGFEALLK

RPS6KA4 KD2 (human) = RPS6KA4 KD2 (human) (UniProt O75676)
NTRK1 (human) = NTRK1 (human) (UniProt P04629)
PRKCD (human) = PRKCD (human) (UniProt Q05655)
JAK3 JH1 JH2 (human) = JAK3 JH1 JH2 (human) (UniProt P52333)
BTK (human) = BTK (human) (UniProt Q06187)
RPS6KB2 (human) = RPS6KB2 (human) (UniProt Q9UBS0)
Sequence of RPS6KB2 (human) (Q9UBS0 whole entry, looked up): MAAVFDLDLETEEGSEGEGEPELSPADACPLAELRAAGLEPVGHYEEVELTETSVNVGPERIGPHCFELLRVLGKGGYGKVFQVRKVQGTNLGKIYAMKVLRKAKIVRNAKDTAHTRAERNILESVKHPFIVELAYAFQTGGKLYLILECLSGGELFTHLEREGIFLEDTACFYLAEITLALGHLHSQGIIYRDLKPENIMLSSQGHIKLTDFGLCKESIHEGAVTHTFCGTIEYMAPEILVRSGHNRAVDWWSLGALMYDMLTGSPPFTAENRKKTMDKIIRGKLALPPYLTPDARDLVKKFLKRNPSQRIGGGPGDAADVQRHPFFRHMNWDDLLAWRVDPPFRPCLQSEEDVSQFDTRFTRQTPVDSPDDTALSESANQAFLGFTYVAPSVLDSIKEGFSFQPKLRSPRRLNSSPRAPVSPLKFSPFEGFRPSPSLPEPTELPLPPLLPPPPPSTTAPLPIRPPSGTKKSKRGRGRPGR

IRAK1 (human) = IRAK1 (human) (UniProt P51617)
SRPK3 (human) = SRPK3 (human) (UniProt Q9UPE1)
EPHB2 (human) = EPHB2 (human) (UniProt P29323)
DYRK1B (human) = DYRK1B (human) (UniProt Q9Y463)
ABL2 (human) = ABL2 (human) (UniProt P42684)
RPS6KA1 KD1 KD2 (human) = RPS6KA1 KD1 KD2 (human) (UniProt Q15418)
FGR (human) = FGR (human) (UniProt P09769)
DMPK (human) = DMPK (human) (UniProt Q09013)
GRK4 (human) = GRK4 (human) (UniProt P32298)
MAPK10 (human) = MAPK10 (human) (UniProt P53779)
ALK (human) = ALK (human) (UniProt Q9UM73)
CDK5 CDK5R1 p35 (human) = CDK5 CDK5R1 p35 (human) (UniProt Q00535+Q15078)
FGFR2 (human) = FGFR2 (human) (UniProt P21802)
NEK2 (human) = NEK2 (human) (UniProt P51955)
EPHA8 (human) = EPHA8 (human) (UniProt P29322)
OXSR1 (human) = OXSR1 (human) (UniProt O95747)
GSG2 (human) = GSG2 (human) (UniProt Q8TF76)
SIK2 (human) = SIK2 (human) (UniProt Q9H0K1)

Sequence of TNK2 (human) (Q07912 whole entry, looked up): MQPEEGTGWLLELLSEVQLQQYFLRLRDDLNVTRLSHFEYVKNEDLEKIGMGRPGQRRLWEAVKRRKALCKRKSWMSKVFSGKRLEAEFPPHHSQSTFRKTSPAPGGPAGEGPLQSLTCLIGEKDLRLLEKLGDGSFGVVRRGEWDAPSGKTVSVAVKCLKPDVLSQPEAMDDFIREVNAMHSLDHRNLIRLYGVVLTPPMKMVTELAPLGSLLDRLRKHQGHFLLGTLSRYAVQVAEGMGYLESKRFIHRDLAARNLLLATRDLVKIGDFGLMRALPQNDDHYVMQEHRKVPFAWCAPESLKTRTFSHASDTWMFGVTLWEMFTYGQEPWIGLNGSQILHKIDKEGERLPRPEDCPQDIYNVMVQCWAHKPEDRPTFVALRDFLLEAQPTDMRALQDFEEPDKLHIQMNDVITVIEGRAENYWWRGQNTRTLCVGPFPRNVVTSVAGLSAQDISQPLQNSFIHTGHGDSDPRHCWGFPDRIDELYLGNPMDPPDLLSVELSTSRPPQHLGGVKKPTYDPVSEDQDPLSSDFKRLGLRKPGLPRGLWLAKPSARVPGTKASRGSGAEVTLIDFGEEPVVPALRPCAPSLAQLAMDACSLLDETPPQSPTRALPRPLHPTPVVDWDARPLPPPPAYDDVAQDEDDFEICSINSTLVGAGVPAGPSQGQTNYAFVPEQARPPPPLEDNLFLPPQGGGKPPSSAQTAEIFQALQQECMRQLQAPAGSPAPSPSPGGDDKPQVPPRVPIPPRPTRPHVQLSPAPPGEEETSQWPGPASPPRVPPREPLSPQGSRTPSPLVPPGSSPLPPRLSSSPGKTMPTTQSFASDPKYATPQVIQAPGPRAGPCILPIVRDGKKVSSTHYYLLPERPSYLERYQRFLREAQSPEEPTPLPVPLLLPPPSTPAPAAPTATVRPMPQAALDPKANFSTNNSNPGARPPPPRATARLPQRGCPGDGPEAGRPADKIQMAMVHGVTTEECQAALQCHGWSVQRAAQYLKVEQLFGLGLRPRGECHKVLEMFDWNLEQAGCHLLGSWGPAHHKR
Sequence of TAOK2 (human) (Q9UL54 whole entry, looked up): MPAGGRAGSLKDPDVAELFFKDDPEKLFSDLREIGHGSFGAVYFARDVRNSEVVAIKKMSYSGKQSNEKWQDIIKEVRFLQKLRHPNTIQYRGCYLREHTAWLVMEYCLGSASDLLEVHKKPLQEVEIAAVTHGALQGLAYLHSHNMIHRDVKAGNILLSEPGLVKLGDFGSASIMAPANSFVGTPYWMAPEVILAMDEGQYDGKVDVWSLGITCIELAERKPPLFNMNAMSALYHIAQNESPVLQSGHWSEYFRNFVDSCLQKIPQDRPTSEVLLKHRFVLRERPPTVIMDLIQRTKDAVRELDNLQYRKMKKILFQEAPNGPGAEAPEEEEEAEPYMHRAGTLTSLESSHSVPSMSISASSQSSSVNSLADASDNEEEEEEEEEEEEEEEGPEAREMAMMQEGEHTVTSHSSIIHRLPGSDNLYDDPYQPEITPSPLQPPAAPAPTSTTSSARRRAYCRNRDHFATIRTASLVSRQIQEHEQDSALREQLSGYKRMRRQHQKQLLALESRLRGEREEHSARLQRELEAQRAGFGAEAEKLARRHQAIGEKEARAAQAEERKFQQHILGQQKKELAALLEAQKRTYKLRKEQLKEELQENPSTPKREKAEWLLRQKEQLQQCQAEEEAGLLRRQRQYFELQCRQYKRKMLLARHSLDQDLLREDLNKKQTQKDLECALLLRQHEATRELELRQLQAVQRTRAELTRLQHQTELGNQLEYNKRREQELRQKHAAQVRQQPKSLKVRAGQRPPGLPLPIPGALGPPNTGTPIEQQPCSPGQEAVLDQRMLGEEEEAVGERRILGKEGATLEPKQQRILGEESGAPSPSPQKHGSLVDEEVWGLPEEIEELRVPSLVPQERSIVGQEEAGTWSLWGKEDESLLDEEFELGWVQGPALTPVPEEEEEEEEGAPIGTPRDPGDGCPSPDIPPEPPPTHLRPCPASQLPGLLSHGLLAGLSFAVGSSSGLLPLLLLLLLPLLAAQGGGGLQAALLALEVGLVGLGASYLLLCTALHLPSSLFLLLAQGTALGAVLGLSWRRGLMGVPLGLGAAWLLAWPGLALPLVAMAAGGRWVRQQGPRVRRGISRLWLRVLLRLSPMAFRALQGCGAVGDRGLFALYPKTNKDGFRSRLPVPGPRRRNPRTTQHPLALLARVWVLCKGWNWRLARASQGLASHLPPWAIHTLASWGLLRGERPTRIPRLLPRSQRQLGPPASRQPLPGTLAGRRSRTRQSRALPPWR

Structure (SMILES)	residual activity (AKT1 (human))	residual activity (TAOK2 (human))	residual activity (CDK4 CCND1 (human))	residual activity (TNK2 (human))	residual activity (CAMK2A (human))	residual activity (FGFR1 (human))	residual activity (PLK2 (human))	residual activity (PAK7 (human))	residual activity (WEE1 (human))	residual activity (PRKD1 (human))	residual activity (MAPK9 (human))	residual activity (MAP2K1 (human))	residual activity (CDC42BPA (human))	residual activity [1]	residual activity (RPS6KA4 KD2 (human))	residual activity (NTRK1 (human))	residual activity (PRKCD (human))	residual activity (JAK3 JH1 JH2 (human))	residual activity (BTK (human))	residual activity (RPS6KB2 (human))	further results
O=c1cc(N2CCOCC2)oc2c1ccc1ccccc12	101%	108%	95.6%	100%	99.4%	92.1%	106%	108%	101%	102%	101%	99.3%	87.6%	104%	99.4%	96.4%	95.1%	103%	112%	99.6%	residual activity (AURKA (human)): 98%; residual activity (CDC42BPB (human)): 98.3%; residual activity (IRAK1 (human)): 112%; residual activity (SRPK3 (human)): 105%; residual activity (EPHB2 (human)): 85%; residual activity (DYRK1B (human)): 90.5%; residual activity (ABL2 (human)): 101%; residual activity (RPS6KA1 KD1 KD2 (human)): 92%; residual activity (FGR (human)): 94.6%; residual activity (DMPK (human)): 105%; residual activity (GRK4 (human)): 104%; residual activity (MAPK10 (human)): 73.8%; residual activity (ALK (human)): 104%; residual activity (CDK5 CDK5R1 p35 (human)): 96.7%; residual activity (FGFR2 (human)): 107%; residual activity (NEK2 (human)): 94.8%; residual activity (EPHA8 (human)): 101%; residual activity (OXSR1 (human)): 108%; residual activity (GSG2 (human)): 85.6%; residual activity (SIK2 (human)): 126%
COc1ccc(COc2ccc(Cc3cnc(N)nc3N)cc2OC)cc1	97.4%	94.7%	97.4%	105%	105%	108%	116%	103%	90.3%	95.2%	106%	98.6%	94.4%	105%	107%	51.3%	87.8%	95.9%	104%	100%	residual activity (AURKA (human)): 105%; residual activity (CDC42BPB (human)): 96.9%; residual activity (IRAK1 (human)): 123%; residual activity (SRPK3 (human)): 102%; residual activity (EPHB2 (human)): 87.4%; residual activity (DYRK1B (human)): 104%; residual activity (ABL2 (human)): 107%; residual activity (RPS6KA1 KD1 KD2 (human)): 92.7%; residual activity (FGR (human)): 92.3%; residual activity (DMPK (human)): 101%; residual activity (GRK4 (human)): 106%; residual activity (MAPK10 (human)): 84.4%; residual activity (ALK (human)): 97.4%; residual activity (FGFR2 (human)): 102%; residual activity (NEK2 (human)): 99.2%; residual activity (OXSR1 (human)): 103%; residual activity (GSG2 (human)): 97.7%; residual activity (SIK2 (human)): 98.6%
CC[n+]1c(/C=C/N(C)c2ccccc2)n(-c2ccccc2)c2ccc(-c3nc4ccccc4s3)cc21	104%	97.7%	107%	98%	103%	97.4%	93.1%	98.6%	92.4%	91.9%	94.6%	93.5%	102%	104%	94.6%	99.1%	93.3%	106%	91.6%	93.2%	residual activity (AURKA (human)): 88.1%; residual activity (CDC42BPB (human)): 95%; residual activity (IRAK1 (human)): 102%; residual activity (EPHB2 (human)): 99.1%; residual activity (DYRK1B (human)): 101%; residual activity (ABL2 (human)): 95.7%; residual activity (RPS6KA1 KD1 KD2 (human)): 104%; residual activity (FGR (human)): 94.1%; residual activity (DMPK (human)): 93.9%; residual activity (GRK4 (human)): 103%; residual activity (MAPK10 (human)): 92.7%; residual activity (ALK (human)): 99.1%; residual activity (CDK5 CDK5R1 p35 (human)): 97.6%; residual activity (FGFR2 (human)): 100%; residual activity (NEK2 (human)): 100%; residual activity (EPHA8 (human)): 96.3%; residual activity (OXSR1 (human)): 94.2%; residual activity (GSG2 (human)): 110%; residual activity (SIK2 (human)): 112%
O=C(Nc1cccc(Nc2nccc(Nc3cccc(C(F)(F)F)c3)n2)c1)C1CC1	109%	92.4%	101%	66.5%	98%	99.6%	99.5%	89.2%	95.6%	94.1%	98.7%	98%	100%	74%	104%	98.1%	87.9%	109%	83.7%	96%	residual activity (CDC42BPB (human)): 96.6%; residual activity (IRAK1 (human)): 96.4%; residual activity (SRPK3 (human)): 101%; residual activity (EPHB2 (human)): 97.8%; residual activity (DYRK1B (human)): 96.3%; residual activity (ABL2 (human)): 83.8%; residual activity (RPS6KA1 KD1 KD2 (human)): 92.8%; residual activity (FGR (human)): 80.9%; residual activity (DMPK (human)): 101%; residual activity (GRK4 (human)): 96.9%; residual activity (MAPK10 (human)): 99%; residual activity (ALK (human)): 99.8%; residual activity (CDK5 CDK5R1 p35 (human)): 105%; residual activity (FGFR2 (human)): 103%; residual activity (NEK2 (human)): 95.3%; residual activity (EPHA8 (human)): 96.3%; residual activity (OXSR1 (human)): 78.9%; residual activity (GSG2 (human)): 101%; residual activity (SIK2 (human)): 103%
O=S(=O)(c1cccc2cnccc12)N1CCCNCC1	99.3%	87.3%	92.2%	89.4%	99.9%	94.6%	100%	73.1%	99.9%	65.1%	87%	83%	104%	111%	81.8%	89.6%	84.7%	120%	96.5%	81.9%	residual activity (AURKA (human)): 101%; residual activity (IRAK1 (human)): 86.2%; residual activity (SRPK3 (human)): 96.4%; residual activity (EPHB2 (human)): 83.2%; residual activity (DYRK1B (human)): 96.3%; residual activity (ABL2 (human)): 87.6%; residual activity (RPS6KA1 KD1 KD2 (human)): 89.2%; residual activity (FGR (human)): 90.5%; residual activity (GRK4 (human)): 104%; residual activity (MAPK10 (human)): 85.3%; residual activity (ALK (human)): 119%; residual activity (FGFR2 (human)): 97.6%; residual activity (NEK2 (human)): 92.3%; residual activity (EPHA8 (human)): 106%; residual activity (GSG2 (human)): 86.6%; residual activity (SIK2 (human)): 97.7%
